Legend:
Assay in all cases: radiometric filter-binding kinase assay, Kinase HotSpot
Conditions in all cases: compound 0.5 µM; ATP 10 µM
TYRO3 (human) = TYRO3 (human) (UniProt Q06418)
MAP4K4 (human) = MAP4K4 (human) (UniProt O95819)
TSSK1B (human) = TSSK1B (human) (UniProt Q9BXA7)
SIK2 (human) = SIK2 (human) (UniProt Q9H0K1)
RET (human) = RET (human) (UniProt P07949)
MAPKAPK2 (human) = MAPKAPK2 (human) (UniProt P49137)
MAP3K10 (human) = MAP3K10 (human) (UniProt Q02779)
PIM2 (human) = PIM2 (human) (UniProt Q9P1W9)
MAP2K2 (human) = MAP2K2 (human) (UniProt P36507)
TEK (human) = TEK (human) (UniProt Q02763)
MST1R (human) = MST1R (human) (UniProt Q04912)
STK3 (human) = STK3 (human) (UniProt Q13188)
PASK (human) = PASK (human) (UniProt Q96RG2)
IKBKB (human) = IKBKB (human) (UniProt O14920)
MAP4K5 (human) = MAP4K5 (human) (UniProt Q9Y4K4)
OXSR1 (human) = OXSR1 (human) (UniProt O95747)
CSF1R (human) = CSF1R (human) (UniProt P07333)
CDK3 CCNE1 (human) = CDK3 CCNE1 (human) (UniProt Q00526+P24864)
PRKG2 (human) = PRKG2 (human) (UniProt Q13237)
MUSK (human) = MUSK (human) (UniProt O15146)
PRKCA (human) = PRKCA (human) (UniProt P17252)
RPS6KA1 KD1 KD2 (human) = RPS6KA1 KD1 KD2 (human) (UniProt Q15418)
NEK1 (human) = NEK1 (human) (UniProt Q96PY6)
PIM3 (human) = PIM3 (human) (UniProt Q86V86)
ULK2 (human) = ULK2 (human) (UniProt Q8IYT8)
EGFR (human) = EGFR (human) (UniProt P00533)
ITK (human) = ITK (human) (UniProt Q08881)
PRKCI (human) = PRKCI (human) (UniProt P41743)
MAPK10 (human) = MAPK10 (human) (UniProt P53779)
CAMK2B (human) = CAMK2B (human) (UniProt Q13554)
SGK3 (human) = SGK3 (human) (UniProt Q96BR1)
BRSK1 (human) = BRSK1 (human) (UniProt Q8TDC3)
[1] = biological target: JAK1 JH1 catalytic (human) (UniProt P23458)
EPHA5 (human) = EPHA5 (human) (UniProt P54756)
CAMK4 (human) = CAMK4 (human) (UniProt Q16566)
RPS6KA2 KD1 KD2 (human) = RPS6KA2 KD1 KD2 (human) (UniProt Q15349)
FES (human) = FES (human) (UniProt P07332)
CDK6 CCND3 (human) = CDK6 CCND3 (human) (UniProt P30281+Q00534)
MINK1 (human) = MINK1 (human) (UniProt Q8N4C8)
MATK (human) = MATK (human) (UniProt P42679)
RIPK2 (human) = RIPK2 (human) (UniProt O43353)
GSK3A (human) = GSK3A (human) (UniProt P49840)

Sequence of MAPK10 (human) (P53779 whole entry, looked up): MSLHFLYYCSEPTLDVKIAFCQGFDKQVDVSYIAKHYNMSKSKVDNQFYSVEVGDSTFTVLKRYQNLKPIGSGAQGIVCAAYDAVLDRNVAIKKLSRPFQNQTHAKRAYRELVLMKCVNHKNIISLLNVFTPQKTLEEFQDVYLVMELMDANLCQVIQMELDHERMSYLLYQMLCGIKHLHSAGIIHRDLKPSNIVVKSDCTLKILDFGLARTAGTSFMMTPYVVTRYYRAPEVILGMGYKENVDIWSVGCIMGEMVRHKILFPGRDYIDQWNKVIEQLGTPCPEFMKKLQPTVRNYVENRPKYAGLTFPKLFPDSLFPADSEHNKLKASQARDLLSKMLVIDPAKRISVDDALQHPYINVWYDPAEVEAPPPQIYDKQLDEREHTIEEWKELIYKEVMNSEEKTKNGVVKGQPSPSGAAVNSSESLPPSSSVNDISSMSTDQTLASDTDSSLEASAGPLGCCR
Sequence of STK3 (human) (Q13188 whole entry, looked up): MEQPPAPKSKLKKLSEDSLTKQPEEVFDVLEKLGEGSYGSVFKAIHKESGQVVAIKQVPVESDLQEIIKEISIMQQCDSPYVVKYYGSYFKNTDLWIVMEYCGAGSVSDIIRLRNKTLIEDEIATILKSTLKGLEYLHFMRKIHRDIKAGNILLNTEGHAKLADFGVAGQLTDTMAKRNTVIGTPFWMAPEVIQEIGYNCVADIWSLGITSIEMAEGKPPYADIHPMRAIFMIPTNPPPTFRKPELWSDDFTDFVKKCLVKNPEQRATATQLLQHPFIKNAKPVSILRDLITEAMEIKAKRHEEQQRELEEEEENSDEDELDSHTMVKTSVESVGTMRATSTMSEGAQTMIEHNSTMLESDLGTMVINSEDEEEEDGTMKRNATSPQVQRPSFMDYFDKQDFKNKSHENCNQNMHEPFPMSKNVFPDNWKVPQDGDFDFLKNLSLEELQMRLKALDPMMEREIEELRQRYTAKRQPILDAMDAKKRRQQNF
Sequence of TYRO3 (human) (Q06418 whole entry, looked up): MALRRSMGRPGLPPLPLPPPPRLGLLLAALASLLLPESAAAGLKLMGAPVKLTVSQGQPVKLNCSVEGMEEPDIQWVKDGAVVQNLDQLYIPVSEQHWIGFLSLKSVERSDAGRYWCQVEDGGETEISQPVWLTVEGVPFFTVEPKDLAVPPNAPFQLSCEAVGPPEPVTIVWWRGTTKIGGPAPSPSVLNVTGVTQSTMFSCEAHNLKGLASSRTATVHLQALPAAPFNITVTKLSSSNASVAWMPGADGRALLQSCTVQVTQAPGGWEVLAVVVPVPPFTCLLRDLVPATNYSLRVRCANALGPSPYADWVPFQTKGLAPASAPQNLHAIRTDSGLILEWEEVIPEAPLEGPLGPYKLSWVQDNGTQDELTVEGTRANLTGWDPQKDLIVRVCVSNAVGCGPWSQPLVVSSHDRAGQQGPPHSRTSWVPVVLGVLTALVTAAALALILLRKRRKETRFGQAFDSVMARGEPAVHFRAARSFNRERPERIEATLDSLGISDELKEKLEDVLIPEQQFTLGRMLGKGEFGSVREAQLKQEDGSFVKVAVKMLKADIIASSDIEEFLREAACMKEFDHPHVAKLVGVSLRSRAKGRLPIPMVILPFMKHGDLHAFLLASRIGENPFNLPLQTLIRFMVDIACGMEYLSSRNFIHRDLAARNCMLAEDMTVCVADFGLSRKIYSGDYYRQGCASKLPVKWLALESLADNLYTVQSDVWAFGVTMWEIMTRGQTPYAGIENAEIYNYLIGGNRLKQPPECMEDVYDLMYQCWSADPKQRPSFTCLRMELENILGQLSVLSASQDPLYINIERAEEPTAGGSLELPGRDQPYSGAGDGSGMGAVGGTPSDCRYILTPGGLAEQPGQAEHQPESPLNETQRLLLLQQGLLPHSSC
Sequence of CDK6 CCND3 (human) (P30281 whole entry, looked up): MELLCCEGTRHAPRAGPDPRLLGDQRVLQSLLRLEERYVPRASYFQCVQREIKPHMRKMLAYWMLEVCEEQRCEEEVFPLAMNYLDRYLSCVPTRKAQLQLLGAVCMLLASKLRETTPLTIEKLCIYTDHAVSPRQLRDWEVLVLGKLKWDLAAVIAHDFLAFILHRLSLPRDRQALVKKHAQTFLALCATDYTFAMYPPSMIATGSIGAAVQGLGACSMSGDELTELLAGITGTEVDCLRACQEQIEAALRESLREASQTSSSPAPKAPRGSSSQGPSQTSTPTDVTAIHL
Sequence of CDK6 CCND3 (human) (Q00534 whole entry, looked up): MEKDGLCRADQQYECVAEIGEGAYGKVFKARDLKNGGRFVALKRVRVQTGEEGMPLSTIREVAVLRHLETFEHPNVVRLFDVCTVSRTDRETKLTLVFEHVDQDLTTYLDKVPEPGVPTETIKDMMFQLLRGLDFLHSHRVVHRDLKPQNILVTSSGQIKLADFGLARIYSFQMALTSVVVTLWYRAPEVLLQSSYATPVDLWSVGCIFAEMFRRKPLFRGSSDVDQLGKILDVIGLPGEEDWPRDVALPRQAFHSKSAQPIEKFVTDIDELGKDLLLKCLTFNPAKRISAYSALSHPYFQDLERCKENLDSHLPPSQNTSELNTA
Sequence of MUSK (human) (O15146 whole entry, looked up): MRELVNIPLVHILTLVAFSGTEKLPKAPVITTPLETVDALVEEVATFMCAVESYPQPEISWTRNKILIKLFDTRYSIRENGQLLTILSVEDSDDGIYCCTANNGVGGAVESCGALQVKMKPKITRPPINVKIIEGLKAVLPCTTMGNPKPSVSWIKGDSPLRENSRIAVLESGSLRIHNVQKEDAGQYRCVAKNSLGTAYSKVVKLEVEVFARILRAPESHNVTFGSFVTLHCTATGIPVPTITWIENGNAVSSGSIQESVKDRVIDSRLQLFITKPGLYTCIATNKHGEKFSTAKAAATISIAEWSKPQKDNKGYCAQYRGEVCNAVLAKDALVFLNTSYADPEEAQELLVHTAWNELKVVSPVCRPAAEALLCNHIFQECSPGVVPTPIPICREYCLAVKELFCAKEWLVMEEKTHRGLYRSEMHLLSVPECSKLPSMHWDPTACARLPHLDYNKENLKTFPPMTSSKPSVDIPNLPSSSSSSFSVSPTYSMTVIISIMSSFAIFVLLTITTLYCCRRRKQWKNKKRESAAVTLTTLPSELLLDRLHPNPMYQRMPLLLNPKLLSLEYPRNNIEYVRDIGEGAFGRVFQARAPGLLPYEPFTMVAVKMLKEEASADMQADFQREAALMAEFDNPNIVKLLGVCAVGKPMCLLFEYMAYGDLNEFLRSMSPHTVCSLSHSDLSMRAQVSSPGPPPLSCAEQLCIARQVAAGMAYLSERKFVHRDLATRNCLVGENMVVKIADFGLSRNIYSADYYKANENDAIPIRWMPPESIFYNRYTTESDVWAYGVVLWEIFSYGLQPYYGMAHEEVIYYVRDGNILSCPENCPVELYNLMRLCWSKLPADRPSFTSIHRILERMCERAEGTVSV
Sequence of ITK (human) (Q08881 whole entry, looked up): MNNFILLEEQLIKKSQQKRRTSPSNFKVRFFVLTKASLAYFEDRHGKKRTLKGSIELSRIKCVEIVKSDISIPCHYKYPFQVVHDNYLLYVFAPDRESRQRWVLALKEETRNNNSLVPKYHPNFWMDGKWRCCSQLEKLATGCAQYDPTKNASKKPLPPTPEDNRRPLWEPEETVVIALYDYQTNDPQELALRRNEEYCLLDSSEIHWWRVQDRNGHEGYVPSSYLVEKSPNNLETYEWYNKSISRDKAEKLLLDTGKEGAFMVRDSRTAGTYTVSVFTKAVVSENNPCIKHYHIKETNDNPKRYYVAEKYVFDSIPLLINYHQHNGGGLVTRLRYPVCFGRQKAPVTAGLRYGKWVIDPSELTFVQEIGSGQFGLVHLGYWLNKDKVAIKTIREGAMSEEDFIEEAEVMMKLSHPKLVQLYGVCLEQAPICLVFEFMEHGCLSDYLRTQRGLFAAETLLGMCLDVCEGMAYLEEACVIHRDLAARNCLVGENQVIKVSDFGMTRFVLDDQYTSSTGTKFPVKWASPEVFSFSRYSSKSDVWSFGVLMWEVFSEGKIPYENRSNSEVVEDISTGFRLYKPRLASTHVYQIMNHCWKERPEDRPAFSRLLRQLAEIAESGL

With Cc1ccc(NC2=CC(=O)c3sc(C)nc3C2=O)cc1 the residual activity (TYRO3 (human)) was 95.3%, the residual activity (MAP4K4 (human)) was 84.5% and the residual activity (TSSK1B (human)) was 115%. The residual activity (SIK2 (human)) was 118%, the residual activity (RET (human)) was 97.6% and the residual activity (MAPKAPK2 (human)) was 97.6%. It also gave a residual activity (MAP3K10 (human)) of 94.6%, a residual activity (PIM2 (human)) of 103% and a residual activity (MAP2K2 (human)) of 98.8%. It also gave a residual activity (TEK (human)) of 95.9%, a residual activity (MST1R (human)) of 88.9% and a residual activity (STK3 (human)) of 105%. It also gave a residual activity (PASK (human)) of 89.4%, a residual activity (IKBKB (human)) of 97.3% and a residual activity (MAP4K5 (human)) of 96.9%. The residual activity (OXSR1 (human)) was 86.6%, the residual activity (CSF1R (human)) was 89.9% and the residual activity (CDK3 CCNE1 (human)) was 88.5%. For the same compound, the residual activity (PRKG2 (human)) was 60.8%, the residual activity (MUSK (human)) was 89.1% and the residual activity (PRKCA (human)) was 100%. The residual activity (RPS6KA1 KD1 KD2 (human)) was 102%, the residual activity (NEK1 (human)) was 76.5% and the residual activity (PIM3 (human)) was 108%. It also gave a residual activity (ULK2 (human)) of 96.9%, a residual activity (EGFR (human)) of 97.9% and a residual activity (ITK (human)) of 98.6%. It also gave a residual activity (PRKCI (human)) of 96.9%, a residual activity (MAPK10 (human)) of 105% and a residual activity (CAMK2B (human)) of 109%. For the same compound, the residual activity (SGK3 (human)) was 95.2%, the residual activity (BRSK1 (human)) was 88.6% and the residual activity [1] was 95.1%. For the same compound, the residual activity (EPHA5 (human)) was 98.2%, the residual activity (CAMK4 (human)) was 98.5% and the residual activity (RPS6KA2 KD1 KD2 (human)) was 82.5%. The residual activity (FES (human)) was 101%, the residual activity (CDK6 CCND3 (human)) was 99.6% and the residual activity (MINK1 (human)) was 101%. It also gave a residual activity (MATK (human)) of 88.3%, a residual activity (RIPK2 (human)) of 95.2% and a residual activity (GSK3A (human)) of 102%.
O=C1NC(=O)C(c2cn(CCCn3ccnc3)c3ccccc23)=C1Nc1ccccc1 showed a residual activity (TYRO3 (human)) of 99.6%, a residual activity (MAP4K4 (human)) of 64% and a residual activity (TSSK1B (human)) of 102%. It also gave a residual activity (SIK2 (human)) of 90.3%, a residual activity (RET (human)) of 95.6% and a residual activity (MAPKAPK2 (human)) of 102%. For the same compound, the residual activity (MAP3K10 (human)) was 34.5%, the residual activity (PIM2 (human)) was 102% and the residual activity (MAP2K2 (human)) was 102%. The residual activity (TEK (human)) was 92.3%, the residual activity (MST1R (human)) was 93.5% and the residual activity (STK3 (human)) was 52%. It also gave a residual activity (PASK (human)) of 98%, a residual activity (IKBKB (human)) of 110% and a residual activity (MAP4K5 (human)) of 66.5%. It also gave a residual activity (OXSR1 (human)) of 97.2%, a residual activity (CSF1R (human)) of 97.5% and a residual activity (CDK3 CCNE1 (human)) of 90.9%. For the same compound, the residual activity (PRKG2 (human)) was 80.3%, the residual activity (MUSK (human)) was 51.6% and the residual activity (PRKCA (human)) was 32%. It also gave a residual activity (RPS6KA1 KD1 KD2 (human)) of 7.54%, a residual activity (NEK1 (human)) of 114% and a residual activity (PIM3 (human)) of 97.5%. For the same compound, the residual activity (ULK2 (human)) was 91.7%, the residual activity (EGFR (human)) was 95.1% and the residual activity (ITK (human)) was 93.9%. The residual activity (PRKCI (human)) was 90.7%, the residual activity (MAPK10 (human)) was 100% and the residual activity (CAMK2B (human)) was 93.8%. For the same compound, the residual activity (SGK3 (human)) was 89.9%, the residual activity (BRSK1 (human)) was 95.3% and the residual activity [1] was 82.1%. For the same compound, the residual activity (EPHA5 (human)) was 96.1%, the residual activity (CAMK4 (human)) was 103% and the residual activity (RPS6KA2 KD1 KD2 (human)) was 3.17%. For the same compound, the residual activity (FES (human)) was 103%, the residual activity (CDK6 CCND3 (human)) was 104% and the residual activity (MINK1 (human)) was 90.1%. It also gave a residual activity (MATK (human)) of 89.8%, a residual activity (RIPK2 (human)) of 84.3% and a residual activity (GSK3A (human)) of 10.6%.
With O=c1cc(N2CCOCC2)oc2c1ccc1ccccc12 the residual activity (TYRO3 (human)) was 97.3%, the residual activity (MAP4K4 (human)) was 89.3% and the residual activity (TSSK1B (human)) was 101%. For the same compound, the residual activity (SIK2 (human)) was 126%, the residual activity (RET (human)) was 99.8% and the residual activity (MAPKAPK2 (human)) was 98.3%. It also gave a residual activity (MAP3K10 (human)) of 102%, a residual activity (PIM2 (human)) of 78.8% and a residual activity (MAP2K2 (human)) of 100%. It also gave a residual activity (TEK (human)) of 94.4%, a residual activity (MST1R (human)) of 103% and a residual activity (STK3 (human)) of 99.1%. It also gave a residual activity (PASK (human)) of 94.9%, a residual activity (IKBKB (human)) of 105% and a residual activity (MAP4K5 (human)) of 103%. It also gave a residual activity (OXSR1 (human)) of 108%, a residual activity (CSF1R (human)) of 103% and a residual activity (CDK3 CCNE1 (human)) of 102%. It also gave a residual activity (PRKG2 (human)) of 102%, a residual activity (MUSK (human)) of 75.6% and a residual activity (PRKCA (human)) of 89.2%. It also gave a residual activity (RPS6KA1 KD1 KD2 (human)) of 92%, a residual activity (NEK1 (human)) of 106% and a residual activity (PIM3 (human)) of 95.4%. It also gave a residual activity (ULK2 (human)) of 94.9%, a residual activity (EGFR (human)) of 96.2% and a residual activity (ITK (human)) of 100%. The residual activity (PRKCI (human)) was 95.5%, the residual activity (MAPK10 (human)) was 73.8% and the residual activity (CAMK2B (human)) was 98.1%. For the same compound, the residual activity (SGK3 (human)) was 106%, the residual activity (BRSK1 (human)) was 100% and the residual activity [1] was 104%. For the same compound, the residual activity (EPHA5 (human)) was 110%, the residual activity (CAMK4 (human)) was 94% and the residual activity (RPS6KA2 KD1 KD2 (human)) was 98.8%. The residual activity (FES (human)) was 100%, the residual activity (CDK6 CCND3 (human)) was 95.1% and the residual activity (MINK1 (human)) was 96%. The residual activity (MATK (human)) was 90.7%, the residual activity (RIPK2 (human)) was 104% and the residual activity (GSK3A (human)) was 97.1%.

From the kinase profiling compilation of Christmann-Franck et al. (2016)
